Measured values taken from patent US6352630B1, “Electrochemical system for determining blood coagulation time” (Asulab S.A., priority 1999, dated 2002).

Biological target: T1, thrombin enzyme (Homo sapiens, UniProt P00734)
T1 construct: from tissue; host or cells: whole blood (drop of blood, 10 µl)
Assay: specificity of the specific reagent vis-à-vis the thrombin enzyme, progressive inhibition by r-hirudin
Format: biochemical
Settings: whole blood, thrombin inhibited by increasing r-hirudin
Description: In the experiments reported hereinafter, potentiostatic measurements were performed by chronoamperometry by means of a potentiostat PGP 201 connected to the Vm1 software of Radiometer (Copenhagen) allowing the following conditions to be obtained:
The surface of the working electrode of the sensor used is 0.035 cm^2 and the sample quantity, drop of blood, or reference solution is 10 μl. the recording of measurements starts 10 seconds after the sample is deposited. The oligopeptide used, hereinafter designated according to use by <>, selected from those indicated previously, is:
Given that whole blood contains extremely numerous constituents, the present experiment allows it to be shown that only the thrombin enzyme is capable of cutting the specific reagent substrate. The experiment is performed in the optimisation conditions defined by experiment 3 (namely PC/PS in the ratio 25/75, Hepes buffer and lyophilisation) starting with a dilution in equal parts of blood and buffer solution and progressively inhibiting the thrombin enzyme by increasing concentrations of r-hirudin (r-hirudin 2000 ATU/bulb, available from Pentapharm AG, Basel, Switzerland) which replace the buffer solution, preferably having checked that the factor Xa is not inhibited by r-hirudin. […]

Tos-Gly-Pro-Arg-3-chloro-4-hydroxyanilide, 2HCl [substrate]
cutting of the substrate, selectivity: selectively cut off by thrombin
